Laboratory results as given in patent US20210308034A1, “PREBIOTIC COMPOSITIONS AND METHODS FOR MAINTAINING A HEALTHY SKIN MICROBIOTA” (KIMBERLY-CLARK WORLDWIDE, INC., priority 2018, published 2021).

Assays:
Type in all cases: cell-based
[1] = test system: Corynebacterium jeikum (ATCC 33033); experiment: Carbohydrate Screening Test Method (Biolog phenotype microarray), Bacteria Code B; details: Commensal; carbon microarray plate, OD 600 nm, 36 hr, 33° C.; positive = more than 0.05 OD units above zero; blank cell = not utilized
Method in brief: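 Strain from M9*2 agar was suspended in M9*1 medium, washed and inoculated into Biolog PM1/PM2 carbon plates. Carbohydrate use was scored yes/no, and growth rate and maximum yield were derived with GrowthRates 2.1, with max yields used for commensal ratios.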

[2] = test system: Staphylococcus epidermidis (ATCC 14990); experiment: Carbohydrate Screening Test Method (Biolog phenotype microarray), Bacteria Code I; details: Commensal; carbon microarray plate, OD 600 nm, 36 hr, 33° C.; positive = more than 0.05 OD units above zero; blank cell = not utilized
Source text: (§1) After creating desired ratios of various commensal skin bacteria in a healthy skin microbiome, 188 different carbohydrate sources were screened as the next step in determining potential prospects for skin microbiota balancing agents. The screening process was set up to determine which carbohydrate sources promoted commensal and/or pathogenic bacteria as well as to obtain individual and combinations of carbohydrate sources that could serve as microbiota balancing agents that can support or maintain the healthy proportions of commensal skin bacteria of Corynebacterium, Staphylococcus, and Micrococcus. The screening was conducted utilizing Biolog phenotype microarray plates (Hayward, Calif.). Table 1 provides a coded list of the commensal and pathogenic skin bacteria that the carbohydrates were screened against.
(§2) Table 2 provides the results of screening various carbohydrate sources against the commensal and pathogenic bacteria codes listed in Table 1. The Bacteria Codes B, D, E, I, and J are commensal bacteria and are shaded in Table 2 for references purposes. The bacteria codes were each placed in a carbon microarray plate and screened through the Carbohydrate Screening Test Method, as described in the Test Methods section herein. If a particular bacteria code utilized a specific carbohydrate source as described in the Carbohydrate Screening Test Method, then the corresponding cell in Table 2 was marked with a Y (short for “Yes”). […] Many of the carbohydrate sources were utilized by both commensal and pathogenic bacteria, and as such, would not provide an advantage for selective growth of the commensal bacteria. However, some of the carbohydrate sources were only used by commensal bacteria and were identified for further testing as described herein.
(§3) The study employed 10 representative skin bacteria; Staphylococcus epidermidis ATCC 14990, Staphylococcus epidermidis M23864:W2, Staphylococcus aureus ATCC 6538, Staphylococcus aureus ATCC 25904 (Newman), Pseudomonas aeruginosa ATCC 9027, Micrococcus luteus ATCC […], Micrococcus luteus SK58, Klebsiella pneumoniae ATCC BAA-2146, Corynebacterium amycolatum SK46, and Corynebacterium minutissimum ATCC 23348. Cultures were started from freezer bead stocks by placing a single bead into 20 mL of tryptic soy broth (TSB) for all organisms except C. amycolatum SK46 and C. minutissimum ATCC 23348, which were placed into brain heart infusion (BHI) broth. Cultures were grown for about 24 hr at 37° C. except M. luteus ATCC 49732 and M. luteus SK58, which were grown at 30° C. A passage of the culture was made using a sterile swab and streaked onto two M9*2 agar plates to prepare the incubated culture for the phenotype microarray pate according to Table 4. Plates were incubated for about 24 hr at 37° C. except for M. luteus ATCC 49732 and M. luteus SK58, which were incubated at 30° C. for 24 hr.
(§4) All cultures were harvested and washed before inoculation into the carbon microarray plate (BiOLOG, Hayward Calif.), with Biolog Plates PM1 and PM2 each having a source definition of Carbon. The bacteria on the M9*2 agar was suspended via agitation with an inoculating loop in 1 mL of M9*1 media for collection in a 1.7 mL micro centrifuge tube, as noted in Table 4. The bacteria was suspended again in M9*1 media, agitated, and collected into the same 1.7 mL microcentrifuge tube used in the previous step. The tube was centrifuged for 5 minutes at 4,000×G, supernatant decanted, the pellet was resuspended in 1 mL of M9*1 media, and vortex. This washing process was repeated for a total of 4 times.
(§5) A tenfold dilution in M9*1 media was performed using 1 mL of the washed bacterial culture. Of the tenfold dilution 200 μL was placed in an untreated 96-well plate (Falcon, Pasadena Tx.) for an initial optical density (OD) reading at a wavelength of 600 nm. The OD was used to correlate to colony forming units (CFU) per milliliter by using linear regression lines for each organism. […]

[3] = test system: Staphylococcus epidermidis (M23864:W2); experiment: Carbohydrate Screening Test Method (Biolog phenotype microarray), Bacteria Code J; details: Commensal; carbon microarray plate, OD 600 nm, 36 hr, 33° C.; positive = more than 0.05 OD units above zero; blank cell = not utilized
Source text: as §1
The Bacteria Codes B, D, E, I, and J are commensal bacteria and are shaded in Table 2 for references purposes. The bacteria codes were each placed in a carbon microarray plate and screened through the Carbohydrate Screening Test Method, as described in the Test Methods section herein. If a particular bacteria code utilized a specific carbohydrate source as described in the Carbohydrate Screening Test Method, then the corresponding cell in Table 2 was marked with a Y (short for “Yes”).
To do so, the respective microarray data for the 79 carbohydrate sources was run through the GrowthRates 2.1 program to obtain growth parameters, such as growth rates and maximum yield data as described by the Belingham Research Institute, Hall, B. G., H. Acar and M. Barlow. 2014 Growth Rates Made Easy. Mol. Biol. Evol. 31:232-238 doi:10.1093/molbev/mst197. The max yield parameters generated were utilized to calculate ratios of tested commensal bacteria. The ratios calculated were compared back to the desired ratios identified above (Corynebacterium to Staphylococcus of 1.3, Corynebacterium to Micrococcus of 1.4, and Staphylococcus to Micrococcus of 1.1).
As an example of this methodology used to calculate the commensal bacteria ratios and the difference between the calculated ratios and the desired ratios, an example code from Table 3 will be described. […] The max yields were then used to calculate ratios the bacteria would reach in a co-culture.

[4] = test system: Micrococcus luteus (SK58); experiment: Carbohydrate Screening Test Method (Biolog phenotype microarray), Bacteria Code E; details: Commensal; carbon microarray plate, OD 600 nm, 36 hr, 33° C.; positive = more than 0.05 OD units above zero; blank cell = not utilized
Method in brief: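 Each commensal strain grown in Biolog carbon phenotype microarray plates with single carbohydrate sources. Growth curves fitted with GrowthRates 2.1 to give growth rate and maximum yield. Max yields used to calculate predicted co-culture ratios between Corynebacterium, Staphylococcus and Micrococcus, compared with desired ratios of 1.3, 1.4 and 1.1.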

[5] = test system: Micrococcus luteus (ATCC 49732); experiment: Carbohydrate Screening Test Method (Biolog phenotype microarray), Bacteria Code D; details: Commensal; carbon microarray plate, OD 600 nm, 36 hr, 33° C.; positive = more than 0.05 OD units above zero; blank cell = not utilized
Source text: as §1, §2, §3, §4, §5

[6] = test system: Pseudomonas aeruginosa (ATCC 9027); details: Pathogenic; carbon microarray plate, OD 600 nm, 36 hr, 33° C.; positive = more than 0.05 OD units above zero; blank cell = not utilized
Method in brief: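 Carbon-source utilisation screen on Biolog PM1/PM2 plates: strain grown in TSB then on M9*2 agar, each ~24 h at 37 °C, washed four times in M9*1 and diluted tenfold. OD600 correlated to CFU/mL; each carbohydrate scored Yes when utilised.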

[7] = test system: Klebsiella pneumoniae (ATCC BAA-2146); details: Pathogenic; carbon microarray plate, OD 600 nm, 36 hr, 33° C.; positive = more than 0.05 OD units above zero; blank cell = not utilized

## O=C(O)CC(O)C(=O)O (racemic) [D,L-Malic Acid]
[1]
  Carbohydrate Screening Results, Bacteria Code B: Y
[2]
  Carbohydrate Screening Results, Bacteria Code I: Y
[3]
  Carbohydrate Screening Results, Bacteria Code J: Y
[4]
  Carbohydrate Screening Results, Bacteria Code E: Y

## NCCO [2-Aminoethanol]
[1]
  Carbohydrate Screening Results, Bacteria Code B: Y
[5]
  Carbohydrate Screening Results, Bacteria Code D: Y
[4]
  Carbohydrate Screening Results, Bacteria Code E: Y

## O=C(O)c1ccc(O)cc1 [4-Hydroxy Benzoic Acid]
[5]
  Carbohydrate Screening Results, Bacteria Code D: Y

## N#C[C@H](O[C@@H]1O[C@H](CO[C@@H]2O[C@H](CO)[C@@H](O)[C@H](O)[C@H]2O)[C@@H](O)[C@H](O)[C@H]1O)c1ccccc1 [Amygdalin]
[5]
  Carbohydrate Screening Results, Bacteria Code D: Y
[3]
  Carbohydrate Screening Results, Bacteria Code J: Y

## C/C(=C/C(=O)O)C(=O)O [Citraconic Acid]
[5]
  Carbohydrate Screening Results, Bacteria Code D: Y
[2]
  Carbohydrate Screening Results, Bacteria Code I: Y
[3]
  Carbohydrate Screening Results, Bacteria Code J: Y

## O=C[C@@H](O)[C@H](O)[C@H](O)CO [D-Arabinose]
[5]
  Carbohydrate Screening Results, Bacteria Code D: Y

## O=C[C@H](O)[C@@H](O)[C@@H](O)[C@H](O)C(=O)O [D-Galacturonic Acid]
[1]
  Carbohydrate Screening Results, Bacteria Code B: Y
[5]
  Carbohydrate Screening Results, Bacteria Code D: Y
[4]
  Carbohydrate Screening Results, Bacteria Code E: Y

## OC[C@H]1O[C@@](CO)(O[C@H]2O[C@H](CO)[C@@H](O)[C@H](O)[C@H]2O)[C@@H](O[C@H]2O[C@H](CO)[C@@H](O)[C@H](O)[C@H]2O)[C@@H]1O [D-Melezitose]
[5]
  Carbohydrate Screening Results, Bacteria Code D: Y
[2]
  Carbohydrate Screening Results, Bacteria Code I: Y

## O=C1O[C@H](CO)[C@@H](O)[C@H]1O [D-Ribono-1,4-Lactone]
[5]
  Carbohydrate Screening Results, Bacteria Code D: Y

## C[C@H](N)C(N)=O [L-Alaninamide]
[5]
  Carbohydrate Screening Results, Bacteria Code D: Y
[3]
  Carbohydrate Screening Results, Bacteria Code J: Y

## N=C(N)NCCC[C@H](N)C(=O)O [L-Arginine]
[6]
  Carbohydrate Screening Results, Bacteria Code F: Y
[5]
  Carbohydrate Screening Results, Bacteria Code D: Y

## CC(C)C[C@H](N)C(=O)O [L-Leucine]
[5]
  Carbohydrate Screening Results, Bacteria Code D: Y

## N[C@@H](CO)C(=O)O [L-Serine]
[1]
  Carbohydrate Screening Results, Bacteria Code B: Y
[2]
  Carbohydrate Screening Results, Bacteria Code I: Y
[3]
  Carbohydrate Screening Results, Bacteria Code J: Y
[4]
  Carbohydrate Screening Results, Bacteria Code E: Y

## O=C(CO)[C@@H](O)[C@H](O)[C@@H](O)CO [L-Sorbose]
[6]
  Carbohydrate Screening Results, Bacteria Code F: Y
[5]
  Carbohydrate Screening Results, Bacteria Code D: Y
[7]
  Carbohydrate Screening Results, Bacteria Code C: Y

## OC[C@@H](O)[C@@H](O[C@@H]1O[C@H](CO)[C@H](O)[C@H](O)[C@H]1O)[C@H](O)[C@@H](O)CO [Lactitol]
[2]
  Carbohydrate Screening Results, Bacteria Code I: Y
[3]
  Carbohydrate Screening Results, Bacteria Code J: Y
[7]
  Carbohydrate Screening Results, Bacteria Code C: Y

## O=C(O)CC(=O)O [Malonic Acid]
[6]
  Carbohydrate Screening Results, Bacteria Code F: Y
[5]
  Carbohydrate Screening Results, Bacteria Code D: Y
[7]
  Carbohydrate Screening Results, Bacteria Code C: Y

## CC(=O)N[C@H]1C(O)O[C@H](CO)[C@H](O)[C@@H]1O (stereo partly drawn) [N-Acetyl-D-Galactosamine]
[5]
  Carbohydrate Screening Results, Bacteria Code D: Y

## CC(=O)N[C@@H](CCC(=O)O)C(=O)O [N-Acetyl-L-Glutamic Acid]
[6]
  Carbohydrate Screening Results, Bacteria Code F: Y
[5]
  Carbohydrate Screening Results, Bacteria Code D: Y

## O=C(O)C(=O)C(C(=O)O)C(O)C(=O)O (stereo not drawn) [Oxalomalic Acid]
[5]
  Carbohydrate Screening Results, Bacteria Code D: Y
[3]
  Carbohydrate Screening Results, Bacteria Code J: Y

## OC[C@H]1O[C@H](OC[C@H]2OC(O)(CO)[C@@H](O)[C@@H]2O)[C@H](O)[C@@H](O)[C@@H]1O (stereo partly drawn) [Palatinose]
[6]
  Carbohydrate Screening Results, Bacteria Code F: Y
[2]
  Carbohydrate Screening Results, Bacteria Code I: Y
[3]
  Carbohydrate Screening Results, Bacteria Code J: Y
[7]
  Carbohydrate Screening Results, Bacteria Code C: Y

## NCCCCN [Putrescine]
[2]
  Carbohydrate Screening Results, Bacteria Code I: Y
[3]
  Carbohydrate Screening Results, Bacteria Code J: Y
[7]
  Carbohydrate Screening Results, Bacteria Code C: Y

## OCc1ccccc1O[C@@H]1O[C@H](CO)[C@@H](O)[C@H](O)[C@H]1O [Salicin]
[6]
  Carbohydrate Screening Results, Bacteria Code F: Y
[5]
  Carbohydrate Screening Results, Bacteria Code D: Y
[7]
  Carbohydrate Screening Results, Bacteria Code C: Y

## OC[C@H]1O[C@H](OC[C@H]2O[C@H](OC[C@H]3O[C@H](O[C@]4(CO)O[C@H](CO)[C@@H](O)[C@@H]4O)[C@H](O)[C@@H](O)[C@@H]3O)[C@H](O)[C@@H](O)[C@H]2O)[C@H](O)[C@@H](O)[C@H]1O [Stachyose]
[6]
  Carbohydrate Screening Results, Bacteria Code F: Y
[5]
  Carbohydrate Screening Results, Bacteria Code D: Y
[7]
  Carbohydrate Screening Results, Bacteria Code C: Y

## NC(=O)CCC(=O)O [Succinamic Acid]
[5]
  Carbohydrate Screening Results, Bacteria Code D: Y
[2]
  Carbohydrate Screening Results, Bacteria Code I: Y

## O=c1ccn([C@@H]2O[C@H](CO)[C@@H](O)[C@H]2O)c(=O)[nH]1 [Uridine]
[1]
  Carbohydrate Screening Results, Bacteria Code B: Y
[5]
  Carbohydrate Screening Results, Bacteria Code D: Y
[7]
  Carbohydrate Screening Results, Bacteria Code C: Y

## OC[C@H]1O[C@@H](O[C@H]2[C@H](O)[C@@H](O)[C@@H](O)O[C@@H]2CO)[C@H](O)[C@@H](O)[C@H]1O [α-D-Lactose]
[1]
  Carbohydrate Screening Results, Bacteria Code B: Y
[2]
  Carbohydrate Screening Results, Bacteria Code I: Y
[3]
  Carbohydrate Screening Results, Bacteria Code J: Y
[4]
  Carbohydrate Screening Results, Bacteria Code E: Y

## COC1OC(CO)C(O)C(O)C1O [α-Methyl-D-Mannoside]
[5]
  Carbohydrate Screening Results, Bacteria Code D: Y

## Chondroitin Sulfate C
[5]
  Carbohydrate Screening Results, Bacteria Code D: Y

## Gelatin
[5]
  Carbohydrate Screening Results, Bacteria Code D: Y
[3]
  Carbohydrate Screening Results, Bacteria Code J: Y
